The text below walks through data of US9493448B2, “Cycloalkane derivatives” (Daiichi Sankyo Company, Limited, priority 2012, dated 2016).

One may read the IC50 as the concentration that inhibits the measured activity by half.

In one experiment the target is hNav 1.7 (Homo sapiens (Human), UniProt Q15858). Briefly: Electrophysiological evaluation, automated patch clamp IonWorks Quattro (Population Patch Clamp mode). Format: cell-based. To be noted: HEK293A cells stably expressing hNav 1.7/β1/β2; response to second depolarization pulse, pre-pulse potential set to V1/2; read-out: hNav1.7 IC50. (The patch-clamp technique gives a direct electrical read-out from membranes.)

In experiment [1] the test system is mice and rats affected by thermal hyperalgesia. Briefly: Thermal hyperalgesia assay.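 Note: measurement times set by the study director and not disclosed.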 Format: in vivo. Particulars: oral administration, constant dose, against the vehicle treatment group; latency to escape behaviors after thermal stimulation of hind paw.
For experiment [2], the system named is painful diabetic neuropathy. Particulars: cited from earlier work.

Sequence of hNav 1.7 (Q15858 whole entry): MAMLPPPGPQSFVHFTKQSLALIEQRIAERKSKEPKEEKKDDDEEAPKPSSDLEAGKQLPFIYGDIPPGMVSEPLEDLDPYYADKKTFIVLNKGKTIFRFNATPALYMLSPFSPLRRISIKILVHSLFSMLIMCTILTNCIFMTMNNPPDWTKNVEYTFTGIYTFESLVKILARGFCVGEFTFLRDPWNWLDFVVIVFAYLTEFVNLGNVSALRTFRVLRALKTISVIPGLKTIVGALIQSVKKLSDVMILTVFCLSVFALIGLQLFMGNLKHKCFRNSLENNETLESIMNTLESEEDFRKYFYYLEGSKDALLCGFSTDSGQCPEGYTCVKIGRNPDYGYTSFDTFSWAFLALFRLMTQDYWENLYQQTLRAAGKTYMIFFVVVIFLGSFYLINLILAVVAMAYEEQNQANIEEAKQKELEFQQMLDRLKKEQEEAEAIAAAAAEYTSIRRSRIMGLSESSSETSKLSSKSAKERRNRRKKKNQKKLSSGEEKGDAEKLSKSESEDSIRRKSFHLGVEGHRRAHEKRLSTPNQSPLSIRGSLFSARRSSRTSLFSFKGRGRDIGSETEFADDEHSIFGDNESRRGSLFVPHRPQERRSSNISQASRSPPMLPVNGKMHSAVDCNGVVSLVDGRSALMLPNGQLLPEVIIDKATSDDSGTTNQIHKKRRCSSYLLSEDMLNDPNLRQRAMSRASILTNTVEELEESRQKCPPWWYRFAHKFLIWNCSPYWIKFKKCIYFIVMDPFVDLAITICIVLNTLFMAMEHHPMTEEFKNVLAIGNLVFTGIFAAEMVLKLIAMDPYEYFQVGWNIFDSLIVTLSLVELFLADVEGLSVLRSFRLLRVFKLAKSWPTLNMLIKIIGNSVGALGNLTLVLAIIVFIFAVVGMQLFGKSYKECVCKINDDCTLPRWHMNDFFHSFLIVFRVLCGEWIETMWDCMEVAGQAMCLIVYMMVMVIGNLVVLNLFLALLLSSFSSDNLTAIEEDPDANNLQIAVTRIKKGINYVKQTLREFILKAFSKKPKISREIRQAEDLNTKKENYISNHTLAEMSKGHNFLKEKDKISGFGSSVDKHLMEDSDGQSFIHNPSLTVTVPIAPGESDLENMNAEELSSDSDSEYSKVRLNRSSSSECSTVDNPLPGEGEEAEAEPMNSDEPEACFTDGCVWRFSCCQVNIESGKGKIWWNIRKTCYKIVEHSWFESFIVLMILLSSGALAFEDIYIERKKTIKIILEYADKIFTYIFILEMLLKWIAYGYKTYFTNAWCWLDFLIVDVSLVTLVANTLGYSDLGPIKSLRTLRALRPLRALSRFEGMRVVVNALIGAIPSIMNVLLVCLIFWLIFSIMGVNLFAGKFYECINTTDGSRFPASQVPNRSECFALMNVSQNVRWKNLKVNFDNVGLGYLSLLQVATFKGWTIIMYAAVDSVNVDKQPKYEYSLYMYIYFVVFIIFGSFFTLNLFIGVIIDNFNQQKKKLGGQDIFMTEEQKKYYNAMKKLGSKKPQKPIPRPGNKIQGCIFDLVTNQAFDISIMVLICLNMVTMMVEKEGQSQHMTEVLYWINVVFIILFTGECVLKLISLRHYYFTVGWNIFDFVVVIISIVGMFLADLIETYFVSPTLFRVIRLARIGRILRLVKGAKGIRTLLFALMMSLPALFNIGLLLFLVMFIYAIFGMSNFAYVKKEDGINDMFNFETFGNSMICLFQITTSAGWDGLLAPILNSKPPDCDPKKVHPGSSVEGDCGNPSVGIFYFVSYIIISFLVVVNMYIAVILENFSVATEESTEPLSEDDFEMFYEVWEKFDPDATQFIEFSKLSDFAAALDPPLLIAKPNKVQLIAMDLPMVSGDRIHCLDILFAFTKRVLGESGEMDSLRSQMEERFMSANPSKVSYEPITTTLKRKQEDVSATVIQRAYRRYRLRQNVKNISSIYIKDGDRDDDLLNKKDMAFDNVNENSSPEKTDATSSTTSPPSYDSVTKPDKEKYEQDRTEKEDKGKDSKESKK
Sequence of hNav 1.7 (Q07699 19-218 partner): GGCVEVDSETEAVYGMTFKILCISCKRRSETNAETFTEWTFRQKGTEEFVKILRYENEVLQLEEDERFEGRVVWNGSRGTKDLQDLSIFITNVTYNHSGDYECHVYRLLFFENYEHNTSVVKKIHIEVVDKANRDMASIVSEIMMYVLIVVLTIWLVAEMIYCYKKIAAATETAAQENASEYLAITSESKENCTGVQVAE
Sequence of hNav 1.7 (O60939 30-215 partner): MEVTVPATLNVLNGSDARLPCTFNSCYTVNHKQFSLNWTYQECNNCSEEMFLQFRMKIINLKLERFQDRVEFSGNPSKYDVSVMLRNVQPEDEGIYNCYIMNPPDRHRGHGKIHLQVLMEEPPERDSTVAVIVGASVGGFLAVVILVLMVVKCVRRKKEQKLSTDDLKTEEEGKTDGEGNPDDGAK

For the compound `Cc1cc(S(=O)(=O)Nc2ccncn2)c(F)cc1O[C@H]1CCC[C@@H]1c1ccn[nH]1` (relative stereo) [Example 138, 2-Fluoro-5-methyl-4-{[(1S*,2R*)-2-(1H-pyrazol-5-yl)cyclopentyl]oxy}-N-(pyrimidin-4-yl)benzenesulfonamide], at hNav 1.7, the IC50 was 24 nM. For the same compound, the “Ratio of improving pain score (%)” value in experiment [1] is “B (“B” when the rate was 31 to 60%)”.
`O=S(=O)(Nc1ccncn1)c1c(F)cc(O[C@H]2CCC[C@@H]2c2ccn[nH]2)cc1F` (relative stereo) [Example 139, 2,6-Difluoro-4-{[(1S*,2R*)-2-(1H-pyrazol-5-yl)cyclopentyl]oxy}-N-(pyrimidin-4-yl)benzenesulfonamide]: on hNav 1.7, the IC50 was determined as 35 nM. Moreover, in experiment [1], the “Ratio of improving pain score (%)” value was “C (“C” when the rate was 0 to 30%)”.
Take `O=S(=O)(Nc1ccncn1)c1cc(Cl)c(O[C@H]2CCC[C@@H]2c2ccn[nH]2)cc1F` (relative stereo) [Example 140, 5-Chloro-2-fluoro-4-{[(1S*,2R*)-2-(1H-pyrazol-5-yl)cyclopentyl]oxy}-N-(pyrimidin-4-yl)benzenesulfonamide]: at hNav 1.7, the IC50 is 34 nM. Besides, in experiment [1], the “Ratio of improving pain score (%)” value is “B (“B” when the rate was 31 to 60%)”.
For `Cn1nccc1[C@H]1CCC(F)(F)C[C@@H]1Oc1cc(F)c(S(=O)(=O)Nc2ccncn2)cc1Cl` (relative stereo) [Example 141, 5-Chloro-4-{[(1S*,2R*)-5,5-difluoro-2-(1-methyl-1H-pyrazol-5-yl)cyclohexyl]oxy}-2-fluoro-N-(pyrimidin-4-yl)benzenesulfonamide], the IC50 on hNav 1.7 amounted to 58 nM. In addition, the “Ratio of improving pain score (%)” value in experiment [1] was “A (“A” when the rate was 61 to 100%)”.
Turning to `Cn1nccc1[C@H]1CC(F)(F)C[C@@H]1Oc1cc(F)c(S(=O)(=O)Nc2ccncn2)cc1Cl` (relative stereo) [Example 146, 5-Chloro-4-{[(1S*,2R*)-4,4-difluoro-2-(1-methyl-1H-pyrazol-5-yl)cyclopentyl]oxy}-2-fluoro-N-(pyrimidin-4-yl)benzenesulfonamide], at hNav 1.7, the IC50 stood at 24 nM. Also, in experiment [1], the “Ratio of improving pain score (%)” value is reported as “C (“C” when the rate was 0 to 30%)”.
The like results for `O=S(=O)(Nc1ccncn1)c1ccc(O[C@H]2CC(F)(F)CC[C@@H]2c2cn[nH]c2)cc1F` (relative stereo) [Example 147, 4-{[(1S*,2R*)-5,5-Difluoro-2-(1H-pyrazol-4-yl)cyclohexyl]oxy}-2-fluoro-N-(pyrimidin-4-yl)benzenesulfonamide] were, in that order, 600 nM and “C (“C” when the rate was 0 to 30%)”.
Take `O=S(=O)(Nc1ccncn1)c1cc(Cl)c(O[C@H]2CC(F)(F)CC[C@@H]2c2cn[nH]c2)cc1F` (relative stereo) [Example 152, 5-Chloro-4-{[(1S*,2R*)-5,5-difluoro-2-(1H-pyrazol-4-yl)cyclohexyl]oxy}-2-fluoro-N-(pyrimidin-4-yl)benzenesulfonamide]: the IC50 on hNav 1.7 was found to be 17 nM. Further, the “Ratio of improving pain score (%)” value in experiment [1] is reported as “B (“B” when the rate was 31 to 60%)”.
For `CCn1nccc1[C@@H]1CCC[C@H]1Oc1ccc(S(=O)(=O)Nc2ccncn2)c(F)c1F` [Example 118, 4-{[(1R,2S)-2-(1-Ethyl-1H-pyrazol-5-yl)cyclopentyl]oxy}-2,3-difluoro-N-(pyrimidin-4-yl)benzenesulfonamide], in that order: 21000 nM and “A (“A” when the rate was 61 to 100%)”.
The like results for `CCn1nccc1[C@H]1CCC[C@@H]1Oc1ccc(S(=O)(=O)Nc2ccncn2)c(F)c1F` [Example 119, 4-{[(1S,2R)-2-(1-Ethyl-1H-pyrazol-5-yl)cyclopentyl]oxy}-2,3-difluoro-N-(pyrimidin-4-yl)benzenesulfonamide] were, in that order, 100 nM and “A (“A” when the rate was 61 to 100%)”.
As to `Cn1nccc1[C@@H]1CCC[C@H]1Oc1ccc(S(=O)(=O)Nc2ccncn2)c(F)c1` [Example 128, 2-Fluoro-4-{[(1R,2S)-2-(1-methyl-1H-pyrazol-5-yl)cyclopentyl]oxy}-N-(pyrimidin-4-yl)benzenesulfonamide], the IC50 at hNav 1.7 was determined as 92000 nM. In addition, the “Ratio of improving pain score (%)” value in experiment [1] is given as “B (“B” when the rate was 31 to 60%)”.
On to `Cc1cc(S(=O)(=O)Nc2ccncn2)c(F)cc1O[C@H]1CC(F)(F)CC[C@@H]1c1ccnn1C` [Example 137, 4-{[(1S,2R)-5,5-Difluoro-2-(1-methyl-1H-pyrazol-5-yl)cyclohexyl]oxy}-2-fluoro-5-methyl-N-(pyrimidin-4-yl)benzenesulfonamide], for which the IC50 on hNav 1.7 was determined as 30 nM. Also, the “Ratio of improving pain score (%)” value in experiment [1] is given as “A (“A” when the rate was 61 to 100%)”.
For the compound `Cc1cc(S(=O)(=O)Nc2ccncn2)c(F)cc1O[C@H]1CC(F)(F)CC[C@@H]1c1cn[nH]c1` [Example 143, 4-{[(1S,2R)-5,5-Difluoro-2-(1H-pyrazol-4-yl)cyclohexyl]oxy}-2-fluoro-5-methyl-N-(pyrimidin-4-yl)benzenesulfonamide], the IC50 at hNav 1.7 stood at 21 nM. In experiment [1], the “Ratio of improving pain score (%)” value is listed as “B (“B” when the rate was 31 to 60%)”.
Consider `Cc1cc(S(=O)(=O)Nc2ccncn2)c(F)cc1O[C@H]1CCC[C@@H]1c1ccn[nH]1` [Example 148, 2-Fluoro-5-methyl-4-{[(1S,2R)-2-(1H-pyrazol-5-yl)cyclopentyl]oxy}-N-(pyrimidin-4-yl)benzenesulfonamide], for which, on hNav 1.7, the IC50 worked out at 18 nM. Moreover, in experiment [1], the “Ratio of improving pain score (%)” value is “B (“B” when the rate was 31 to 60%)”.
As to `O=S(=O)(Nc1ccncn1)c1cc(Cl)c(O[C@H]2CCC[C@@H]2c2ccn[nH]2)cc1F` [Example 150, 5-Chloro-2-fluoro-4-{[(1S,2R)-2-(1H-pyrazol-5-yl)cyclopentyl]oxy}-N-(pyrimidin-4-yl)benzenesulfonamide], on hNav 1.7, the concentration for half-maximal inhibition (IC50) was 21 nM. The “Ratio of improving pain score (%)” value in experiment [1] is reported as “C (“C” when the rate was 0 to 30%)”.
As to `O=S(=O)(Nc1ccncn1)c1cc(Cl)c(O[C@H]2CCCC[C@@H]2c2ccn[nH]2)cc1F` [Example 158, 5-Chloro-2-fluoro-4-{[(1S,2R)-2-(1H-pyrazol-5-yl)cyclohexyl]oxy}-N-(pyrimidin-4-yl)benzenesulfonamide], the IC50 on hNav 1.7 came out at 28 nM. Also, the “Ratio of improving pain score (%)” value in experiment [1] is “C (“C” when the rate was 0 to 30%)”.
`Cn1nccc1[C@H]1C[C@H](O)CC[C@@H]1Oc1cc(F)c(S(=O)(=O)Nc2ccncn2)cc1Cl` [Example 165, 5-Chloro-2-fluoro-4-{[(1S,2R,4R)-4-hydroxy-2-(1-methyl-1H-pyrazol-5-yl)cyclohexyl]oxy}-N-(pyrimidin-4-yl)benzenesulfonamide]: the IC50 on hNav 1.7 came out at 40 nM. Besides, the “Ratio of improving pain score (%)” value in experiment [1] is listed as “B (“B” when the rate was 31 to 60%)”.
For the compound `O=S(=O)(Nc1ccncn1)c1c(F)cc(O[C@H]2CCCC[C@@H]2c2cn[nH]c2)cc1F` [Example 171, 2,6-Difluoro-4-{[(1S,2R)-2-(1H-pyrazol-4-yl)cyclohexyl]oxy}-N-(pyrimidin-4-yl)benzenesulfonamide], the half-inhibitory concentration (IC50) on hNav 1.7 is 43 nM. The “Ratio of improving pain score (%)” value in experiment [1] is reported as “B (“B” when the rate was 31 to 60%)”.
Take `CC(C)C[C@H](CN)CC(=O)O` [pregabalin]: in experiment [2], the “effective therapeutic ratio based on self-evaluation of patients” value is recorded as “approximately 50%”.
